Assay: Human HepG2 cell viability assay in 384 well format
Format: toxicity, cell-based
Design: dose 125 nL, time 70.5 hour; concentration not given beside the values
Conditions: HepG2 cells, read-out: Inhibition

SMILES	cytotoxicity at 70.5 h [%]
Cn1c(=O)c2sccc2n(Cc2ccccc2)c1=O	2.6
O=C(C1CCSCC1)N1CCC2(CC1)COC(COCC1CC1)C2 (centres undefined)	-11.3
CCc1ccc(CN2CCC3(CCCN(C(=O)N(C)C)C3)C2)o1 (centres undefined)	-10.4
CN(C)C(=O)CNC(=O)c1nc2c(s1)CCCN2Cc1ccccc1	-2.15
CC(=O)N1CCO[C@@H]2CN(S(=O)(=O)c3ccccc3F)C[C@@H]2C1	-10.2
O=C1NCCO[C@H]2CN(C(=O)CCc3ccccc3Cl)CC[C@@H]12	22.6
COCC1c2nnn(C)c2CCN1C(=O)Cc1ccc2c(c1)OCO2 (centres undefined)	9.52
O=C(c1ccnnc1)N1C[C@@H]2CN(c3ncccn3)C[C@@H]2C1	7.41
CN(C)c1ncnc2c1CCN(c1ccccc1)CC2	13.6
Cn1cnc(C(=O)N2CC3(CCN(S(=O)(=O)c4ccccc4)C3)C2)c1	-7.62
CS(=O)(=O)N1CCC2(CCCN(c3ncc(F)cn3)C2)C1 (centres undefined)	-7.4
CCS(=O)(=O)N1CCCC2(CCCN2C(=O)c2cn(C)cn2)C1 (centres undefined)	-8.17
O=C(c1ccnnc1)N1CC2(CCN(c3ncccn3)C2)C1	-5.07
COCC(=O)N1CC2(CCN(c3ccccc3)C2)C1	-5.97
O=C(c1ccoc1)N1C[C@@H]2CN(c3ncccn3)C[C@@H]2C1	-4.89
COc1ncnc2c1CCN(c1cccc(F)c1)CC2	-6.07
Cc1cc(F)ccc1NC(=O)Cn1cc(C(=O)O)ccc1=O	-18.2
COc1cccc(C2C3=C(COC3=O)Nc3[nH]nc(C)c32)c1O (centres undefined)	-3.51
CC(C)NC(=O)c1cc2c([nH]c1=O)CC(c1cccs1)CC2=O (centres undefined)	6.88
COc1cc(CO)c(OC)c2c1OCO2	-8.39
Cc1ccc(N2Cc3nc(=O)[nH]n3C2=O)cc1	6.49
O=C1N(c2cccc(Cl)c2)Cc2nc(=O)[nH]n21	-3.18
COC(=O)CNC(=O)CSCc1nc(O)c2cc(C)sc2n1	4.84

SMILES	cytotoxicity at 70.5 h [%]
COc1cc(OC)cc(C2SCC(=O)Nc3ccsc32)c1 (centres undefined)	-4.19
CC(C)c1cc2c(O)nc(CSCC(=O)NCc3ccncc3)nc2s1	-12.9
O=C1CC(c2ccc(C(=O)O)cc2)c2ncn(-c3ccccc3F)c2N1 (centres undefined)	-11.1
O=C1CC(c2ccc(C(=O)O)cc2)c2ncn(-c3ccc(F)cc3)c2N1 (centres undefined)	-4.89
COCCNC(=O)CSCc1nc(O)c2cc(C(C)C)sc2n1	-8.44
COc1ccc(N2Cc3nc(=O)[nH]n3C2=O)cc1	6.34
O=C1CC(c2ccc(C(=O)O)cc2)c2ncn(-c3cccc(Cl)c3)c2N1 (centres undefined)	-9.82
CC1CCc2nc(O)c(C(=O)NCCCN3CCN(C)CC3)cc2C1 (centres undefined)	-7.22
Cc1csc(CCNC(=O)c2cc3c(nc2O)CCC(C)C3)n1 (centres undefined)	-8.45
COC(=O)C(C)NC(=O)CSCc1nc(O)c2cc(C(C)C)sc2n1 (centres undefined)	6.75
COc1cc(C2SCC(=O)Nc3ccsc32)cc(OC)c1OC (centres undefined)	-14.5
O=c1c2cnc(N3CCCC3)nc2ccn1-c1cccc(C(F)(F)F)c1	-5.84
Cc1ccc(Sc2ccc(N3CCC(C(=O)O)CC3)nn2)cc1	33.4
Cc1c(C)n(CC(O)CN2CCC(C)CC2)c2c(Cl)cccc12 (centres undefined)	14.8
Cc1c(C)n(CC(O)CN2CCC(O)CC2)c2c(Cl)cccc12 (centres undefined)	16.5
Cc1cc(C)c(C#N)c(N2CCC(Cc3ccccc3)CC2)n1	-2.18
COc1ncc(C(=O)NCc2ccccc2)cn1	0.247
CCN(CC)C(=O)Cn1c(C)cc2nc(SC)n(CC(C)C)c(=O)c21	-6.31
CSc1nc2cc(C)n(CC(=O)NC(C)C)c2c(=O)n1CC(C)C	-4.16
CSc1nc2cc(C)n(CC(=O)N3CCCC3)c2c(=O)n1CC(C)C	-5.31
CCOC(=O)CSc1ccc(-c2nc(C)no2)cn1	1.96
Cc1noc(C2(NC(=O)c3cccnc3O)CCCCC2)n1	2.75
COc1cccc(Cn2c(=O)n(C)c(=O)c3sccc32)c1	0.75

SMILES	cytotoxicity at 70.5 h [%]
O=C(O)C1CCN(c2ccc(Sc3ccc(Br)cc3)nn2)CC1	26.1
O=c1[nH]nc2nc(N3CCOCC3)ccn12	-1
Cc1ccc(Sc2ccc(N3CCCC(C(=O)O)C3)nn2)cc1 (centres undefined)	0.439
O=c1[nH]nc2nc(N3CCSCC3)ccn12	0.517
Oc1nnc(-c2ccccc2)c2sc(N3CCCCC3)nc12	0.482
CCOC(=O)c1cn(CC(O)c2ccccc2OC)nn1 (centres undefined)	7.58
COc1cc(Cl)c(C)cc1-n1nnc(C(=O)O)c1-c1ccncc1	28.1
CC(C)=CCC/C(C)=C\CNCc1ccco1	2.6
O=C(O)c1ccc2[nH]cc(CN3CCOCC3)c2c1	2.68
CC(C)n1[nH]c(=O)c2c1NC(=O)CC2C1CCCCC1 (centres undefined)	4.13
O=C1COc2ccc(S(=O)(=O)NC3CC3)c3c2N1CCC3	7.26
COCc1nc2nc(O)c3c(n2n1)NC(=O)CC3c1ccc(SC)cc1 (centres undefined)	1.29
CCc1nc(C#N)c(N2CCC(c3nc(-c4ccccc4)no3)CC2)o1	0.267
Cc1noc(C2CCN(c3oc(C)nc3C#N)CC2)n1	2.04
CC(C)CN1C(=O)CC(N2CCN(c3ccc(F)cc3)CC2)C1=O (centres undefined)	13.6
COCCCN1C(=O)CC(N2CCN(c3ccc(F)cc3)CC2)C1=O (centres undefined)	-1.4
COCCNC(=O)c1sccc1N(C)S(=O)(=O)c1ccc(Cl)cc1	-22.2
O=c1[nH]c2nc(N3CCOCC3)ncc2c(=O)n1-c1cccc(F)c1	-2.92
O=c1[nH]c2nc(N3CCSCC3)ncc2c(=O)n1-c1ccc(F)cc1	-16.9
CCN(c1ccc(C(=O)NCCN2CCOCC2)cc1)S(=O)(=O)CC	-25.1
O=C(c1ccccc1-n1cnnn1)N1CCC2(CC1)OCCO2	-1.41
CCCn1[nH]c(CNc2ccccc2)nc1=O	-2.36
O=C(Nc1ccc(Cl)cn1)c1nn(C2CCS(=O)(=O)C2)c2c1CCCC2 (centres undefined)	-23

SMILES	cytotoxicity at 70.5 h [%]
COc1ccc(OC)c(C2SCC(=O)Nc3n[nH]cc32)c1 (centres undefined)	-9.28
O=C(Nc1ccc(Cl)cc1)c1nn(C2CCS(=O)(=O)C2)c2c1CCCC2 (centres undefined)	-19.1
Cc1cc(O)c(OCC(=O)/N=c2\[nH]c(C)cs2)cn1	-2.18
CC(C)(C)NC(=O)c1nn(C2CCS(=O)(=O)C2)c2c1CCCC2 (centres undefined)	-18.7
O=C(c1cc(-n2cnnn2)ccc1Cl)N1CCCCCC1	-2.04
CC(C)NC(=O)c1ccc2c(c1)nc1n2CCN(Cc2ccco2)C1	-10.4
CCOC(=O)c1s/c(=N\C(=O)COc2cnc(C)cc2O)[nH]c1C	-19
Cc1ccc(N2N=C(C(=O)NCC3CC3)S(=O)(=O)c3cccnc32)cc1	-8.14
CCc1c(C(=O)O)nnn1-c1ccc(C)cc1C	-17.4
O=C1c2cnc(N3CCOCC3)nc2CN1c1ccc2c(c1)OCO2	-5.67
CCn1nccc1CNC(=O)C1CCCC1	-6.56
Cc1ncsc1C(=O)N1CCc2nnc(C3CCCCN3C)n2CC1 (centres undefined)	-2.05
CN(C)c1cc(CC(NC(=O)C2CC2)c2ccccc2)nc(C2CC2)n1 (centres undefined)	16.9
CN(C)CC1(O)CCN(C(=O)Cc2ccc3c(c2)CCC3)C1 (centres undefined)	0.63
c1cnc(CC2COCCN(C3CCCCC3)C2)cn1 (centres undefined)	1.48
CN(C)C(=O)c1cn[nH]c1C1CCCN1Cc1c[nH]cn1 (centres undefined)	0.232
Cc1cn[nH]c1C1COCCN1C(=O)c1cc(F)ccc1F (centres undefined)	5.9
Cc1nc2c(c(=O)[nH]1)CCN(Cc1ccc3c(c1)CCCN3C)C2	0.602
Cc1nc(=O)c2ccccc2n1C1=CCN(CC(=O)N2CCCC2)CC1	-1.43
CNC(=O)CCc1cccc(C2CCCN(c3cc(C)ncn3)C2)n1 (centres undefined)	-2.33
CN(C)C(=O)c1cn[nH]c1C1CCCN1Cc1cncn1C (centres undefined)	-0.0963
CC(C)C(=O)N1CCCC(Cc2cccnc2)C1 (centres undefined)	-0.448
CCS(=O)(=O)N1CCC(c2nn(CCN(C)C)c3ncccc23)C1 (centres undefined)	-1.3

SMILES	cytotoxicity at 70.5 h [%]
Cc1nc(CN(C)C(=O)CN(C)C)nc2c1CCC(=O)N2CCC(C)C	-0.759
Cc1nc(NC2CCN(S(=O)(=O)c3ccccc3)CC2)[nH]c(=O)c1C	-9.46
Cc1cc(C)n(CCNCc2cc(-c3ccccc3)c[nH]c2=O)n1	-9.26
COc1cc(CN)c(OC)c2c1OCO2	-15.1
CC(C)(CO)NCc1ccc(OCc2ccc3c(c2)OCCO3)cc1	-2.91
c1cc(NCc2ccncc2)nc(C2CCCNC2)c1 (centres undefined)	-1.2
CN(C)C(=O)NCc1ncn2c1CN(Cc1ccco1)CCC2	-6.46
Cc1cnnn1Cc1nnn2c1CN(Cc1ccccn1)CCC2	-7.24
c1ccc(CN2CCCn3nnc(Cn4cccc4)c3C2)nc1	-7.02
CN1CCO[C@@H]2CN(S(=O)(=O)c3ccccc3)CC[C@@H]2C1	-5
c1cnc(N2CCOCC3(CN(Cc4ccsc4)CCO3)C2)nc1 (centres undefined)	-3.74
Cc1cnnn1Cc1nnn2c1CN(Cc1cccs1)CCC2	-1.92
CN1CCO[C@@H]2CN(S(=O)(=O)c3ccc(F)cc3)CC[C@@H]2C1	-1.86
CC1=N[C@@]2(CC[C@@H]3CN(CC(C)C)C[C@@H]32)C(=O)N1C	-5.39
c1coc(CNc2ncc3c(n2)C2(CCNC2)COC3)c1 (centres undefined)	-4.32
c1cnc(N2CCOC3(COCCN(Cc4cc[nH]n4)C3)C2)nc1 (centres undefined)	-8.27
COCCC(=O)N1CCN(CC2CC2)c2nc(C)ccc2C1	9.16
c1c2c(nn1CC1CC1)C(CNC1CCOCC1)OCC2 (centres undefined)	-11.6
CN1CC2(CCN(C(=O)Cc3ccccn3)CC2)OCC1=O	-5.16
c1c2c(nn1CC1CCOCC1)C(CNC1CCOCC1)OCC2 (centres undefined)	7.06
Cn1cc2c(n1)C(CNC1CCOCC1)OCC2 (centres undefined)	-5.41
O=C(O)CN1CCC(F)(F)C2(CCN(c3ccccn3)C2)C1 (centres undefined)	2.21

Source: ChEMBL document CHEMBL3507680, “University of Dundee, Gates Library screen for HepG2 cell viability”
